Experimental data from US5236948A, “Sulphonamide derivatives” (Imperial Chemical Industries PLC, priority 1991, dated 1993).

Columns and labels:
5-LO [1] = target: T1, 5-LO (Homo sapiens, UniProt P09917); assay: Test a) in vitro inhibition of LTB4 formation in heparinised human blood challenged with A23187 (radioimmunoassay); type: cell-based
T1 construct: incubating a test compound with heparinised human blood; endogenous in cells; host or cells: blood cells in heparinised human whole blood
T1 sequence (P09917 1-674): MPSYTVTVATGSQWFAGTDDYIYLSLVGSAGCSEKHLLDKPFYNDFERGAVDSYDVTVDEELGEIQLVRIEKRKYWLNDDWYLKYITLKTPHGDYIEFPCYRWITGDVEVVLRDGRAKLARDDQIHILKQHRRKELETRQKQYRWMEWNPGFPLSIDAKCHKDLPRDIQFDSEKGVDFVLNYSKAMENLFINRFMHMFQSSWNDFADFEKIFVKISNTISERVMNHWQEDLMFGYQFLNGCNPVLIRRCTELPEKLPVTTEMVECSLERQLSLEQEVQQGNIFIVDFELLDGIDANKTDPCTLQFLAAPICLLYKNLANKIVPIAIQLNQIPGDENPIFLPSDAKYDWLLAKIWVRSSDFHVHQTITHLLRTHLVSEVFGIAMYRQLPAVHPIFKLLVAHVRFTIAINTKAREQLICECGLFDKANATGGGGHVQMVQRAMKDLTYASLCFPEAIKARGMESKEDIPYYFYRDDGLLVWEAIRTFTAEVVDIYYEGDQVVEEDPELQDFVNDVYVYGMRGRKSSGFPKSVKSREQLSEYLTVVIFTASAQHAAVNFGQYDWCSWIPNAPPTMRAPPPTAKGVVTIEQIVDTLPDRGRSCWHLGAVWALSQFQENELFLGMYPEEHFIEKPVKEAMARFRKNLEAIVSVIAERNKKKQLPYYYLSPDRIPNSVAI
Experimental: a) An in vitro assay system involving incubating a test compound with heparinised human blood, prior to challenge with the calcium ionophore A23187 and then indirectly measuring the inhibitory effects on 5-LO by assaying the amount of LTB4 using specific radioimmunoassays described by Carey and Forder (Prostaglandins, Leukotrienes Med., 1986, 22, 57; Prostaglandins, 1984, 28, 666; Brit. J. Pharmacol., 1985, 84, 34P) which involve the use of a protein-LTB4 conjugate produced using the procedure of Young et alia (Prostaglandins, 1983, 26(4), 605-613). The effects of a test compound on the enzyme cyclooxygenase (which is involved in the alternative metabolic pathway for arachidonic acid and gives rise to prostaglandins, thromboxanes and related metabolites) may be measured at the same time using the specific radioimmunoassay for thromboxane B2 (TxB2) described by Carey and Forder (see above). This test provides an indication of the effects of a test compound against 5-LO and also cyclooxygenase in the presence of blood cells and proteins. It permits the selectivity of the inhibitory effect on 5-LO or cyclooxygenase to be assessed.

5-LO [2] = target: T2, 5-LO (Rattus norvegicus, UniProt P12527); assay: Test c) in vivo zymosan-induced LTB4 liberation in rat air pouch, oral compound; conditions: 3 h; test c)
T2 construct: an air pouch generated within the subcutaneous tissue of the back of male rats; endogenous in cells; host or cells: cells of the zymosan-inflamed air pouch of live male rats
T2 sequence (P12527 1-673): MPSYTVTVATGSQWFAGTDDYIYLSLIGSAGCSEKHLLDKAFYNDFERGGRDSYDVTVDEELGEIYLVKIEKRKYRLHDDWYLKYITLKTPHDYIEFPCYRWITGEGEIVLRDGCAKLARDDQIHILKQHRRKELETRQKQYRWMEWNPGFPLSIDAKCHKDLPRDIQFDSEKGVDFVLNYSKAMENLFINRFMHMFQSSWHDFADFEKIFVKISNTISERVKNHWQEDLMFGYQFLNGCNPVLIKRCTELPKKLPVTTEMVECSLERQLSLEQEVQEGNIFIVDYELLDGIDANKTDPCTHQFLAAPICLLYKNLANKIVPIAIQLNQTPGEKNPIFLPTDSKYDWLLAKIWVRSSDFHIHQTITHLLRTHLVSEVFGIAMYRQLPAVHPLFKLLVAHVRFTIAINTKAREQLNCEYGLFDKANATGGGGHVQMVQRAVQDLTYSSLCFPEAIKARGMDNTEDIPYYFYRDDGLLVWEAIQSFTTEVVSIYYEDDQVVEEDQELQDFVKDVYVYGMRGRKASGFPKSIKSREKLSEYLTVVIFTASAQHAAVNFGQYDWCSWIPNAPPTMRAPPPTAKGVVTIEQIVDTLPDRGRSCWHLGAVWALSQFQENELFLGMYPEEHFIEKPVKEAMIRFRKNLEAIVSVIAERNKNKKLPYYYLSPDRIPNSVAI
Experimental: c) An in vivo system involving measuring the effects of a test compound administered orally against the liberation of LTB4 induced by zymosan within an air pouch generated within the subcutaneous tissue of the back of male rats. The rats are anaesthetised and air pouches are formed by the injection of sterile air (20 ml). A further injection of air (10 ml) is similarly given after 3 days. At 6 days after the initial air injection the test compound is administered (usually orally as the suspension produced when a solution of the test compound in dimethylsulphoxide is added to hydroxypropylmethylcellulose), followed by the intrapouch injection of zymosan (1 ml of a 1% suspension in physiological saline). After 3 hours the rats are killed, the air pouches are lavaged with physiological saline, and the specific radioimmunoassay described above is used to assay LTB4 in the washings. This test provides an indication of inhibitory effects against 5-LO in an inflammatory milieu.

| IC50 (5-LO [1]) [nM] | ED50 (5-LO [2]) [mg/kg] | SMILES |
| --- | --- | --- |
| 90 | 1 | COC1(c2cccc(Sc3ccc(N(C)S(C)(=O)=O)cc3Cl)c2)CCOCC1 [N-{3-chloro-4-[3-(4-methoxytetrahydropyran-4-yl)phenylthio]phenyl}-N-methylmethanesulphonamide] |
| 1000 | 1.5 | COC1(c2cccc(Sc3ccc(NS(C)(=O)=O)c(Cl)c3)c2)CCOCC1 [N-{2-chloro-4-[3-(4-methoxytetrahydropyran-4-yl)phenylthio]phenyl)-methanesulphonamide] |
